Where two headings read alike, the source gives them in different places.
How the values were obtained:
SARS-CoV-2 [1] = assay: Western blot of viral proteins and DCLK1 in SARS-CoV-2-infected Calu3 lung cells; assay type: cell-based
SARS-CoV-2 [2] = assay: TCID50 titer of infectious SARS-CoV-2 particles in culture supernatants of infected Calu3 cells; assay type: cell-based; conditions: treated vs untreated
SARS-CoV-2 [3] = assay type: cell-based
[4] = tested on: SARS-CoV-2-infected Calu3 cells; assay type: cell-based; conditions: DCLK1-IN-1 5 μM, tasquinimod 10 μM or both
SARS-CoV-2 [5] = assay type: cell-based; remark: listed apart in the source
[6] = tested on: SARS-CoV-2-infected Huh7-RFP-DCLK1 cells with normal human PBMCs; assay: Multiplex cytokine assay of spent supernatants from infected Huh7-RFP-DCLK1 / PBMC mixed cocultures; assay type: cell-based; conditions: 5 μM, 48 h
Description: Tissue culture supernatants and sera were analyzed using a custom-made human Magnetic Luminex Assay Kit (LXSAHM-15; R&D Systems) for the following analytes: TNF-α, IFNα, IFNβ, IFNγ, IL-1β, IL-2, IL-4, IL-6, IL-8, IL-10, IL-17, CCL2, M-CSF, GM-CSF, and VEGF-A. Samples were processed in replicates and quantified using the BioPlex 200 System (Bio-Rad). The concentration of each analyte was expressed as pg/mg of total protein. Analyte levels in normal serum or control supernatants were set at 100% when compared to test samples.
To assess the effect of DCLK1 kinase on cytokine production during SARS-CoV-2 infection, we mixed infected Huh7-RFP-DCLK1 cells with normal human PBMCs in the presence of 5 μM DCLK1-IN-1 for 48 h. Spent supernatants were assayed for cytokines/chemokines/growth factors using a multiplex system. As with infected Calu3 cells, DCLK1-IN-1 blocked Spike (FIG. 8A, lane 2, Set 2). […] However, PBMCs were responsive to SARS-CoV-2-infected cells as indicated by increased secretion of TNF-α, IL-1β, IL-6, and IL-10 in spent media compared to uninfected cells (FIG. 8B). DCLK1-IN-1 treatment led to downregulation of cytokines involved in inflammation and viral response (TNF-α, IFNα, IFNγ, and IL-10; FIG. 8C). […] Since CCL2 participates in normal wound healing, an increase in this chemokine may contribute to tissue healing after viral clearance. […]

[7] = tested on: SARS-CoV-2 infected Calu-3 lung cells; assay: Label-free quantitative proteomic analysis of SARS-CoV-2-infected Calu-3 lung cells; assay type: cell-based
[8] = tested on: SARS-CoV-2 nucleocapsid and membrane proteins; assay: Phosphoproteomic analysis of viral proteins in infected Calu3 cells; assay type: cell-based
Omicron B.1.1.529 virus = assay type: cell-based, SARS-CoV-2; conditions: 5 μM and 10 μM, in comparison to vehicle-treated control
SARS-CoV-2 [9] = assay type: in vivo, K18-hACE2 mice; conditions: 10 mg/kg i.p. daily for 4 days
kinase domain of DCLK1 = molecular target: T1, kinase domain of DCLK1 (Homo sapiens, UniProt O15075); conditions: cited from earlier work
T1 sequence (O15075 390-647 limits assumed): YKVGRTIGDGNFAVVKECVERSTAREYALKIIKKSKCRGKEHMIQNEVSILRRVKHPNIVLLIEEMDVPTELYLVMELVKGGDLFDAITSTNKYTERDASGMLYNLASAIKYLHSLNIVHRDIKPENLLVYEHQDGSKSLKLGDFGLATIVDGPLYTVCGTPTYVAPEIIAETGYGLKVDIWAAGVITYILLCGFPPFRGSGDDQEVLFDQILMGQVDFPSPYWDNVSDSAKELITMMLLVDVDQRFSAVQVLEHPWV

[10] = mice, cited from earlier work
GM-CSF = molecular target: T2, GM-CSF (Homo sapiens, UniProt P04141); conditions: clinical trial; cited from earlier work
T2 construct: host or cells: COVID-19 patients (endogenous GM-CSF)
T2 sequence (P04141 18-144): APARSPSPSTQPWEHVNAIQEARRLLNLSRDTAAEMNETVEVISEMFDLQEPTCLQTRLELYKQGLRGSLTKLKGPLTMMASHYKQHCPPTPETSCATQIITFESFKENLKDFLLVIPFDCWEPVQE

COc1cc(N2CCN(C)CC2)ccc1Nc1ncc2c(n1)N(C)c1ccccc1C(=O)N2CC(F)(F)F [DCLK1-IN-1]
loss of intracellular viral proteins (nucleocapsid and Spike) (SARS-CoV-2 [1]; 5 μM, infected Calu3, Western blot): ~65% | loss of intracellular viral proteins (nucleocapsid and Spike) (SARS-CoV-2 [1]; 10 μM, infected Calu3, Western blot): ~95% | DCLK1 protein levels (SARS-CoV-2 [1]; infected Calu3, Western blot): not significantly affected | reduction in intracellular viral proteins (nucleocapsid and Spike) (SARS-CoV-2 [1]; infected Calu3, Western blot, compared to untreated control): strong dose-response reduction | decrease in infectivity (TCID50) (SARS-CoV-2 [2]; 5 μM): 4 fold | decrease in infectivity (TCID50) (SARS-CoV-2 [2]; 10 μM): 10 fold | Spike by immunofluorescence (SARS-CoV-2 [3]): downregulation of Spike | active forms of caspase 1 and IL-1β [4]: downregulated | effect on Spike (SARS-CoV-2 [5]): blocked Spike | CCL2 (MCP-1) [6]: increased expression | cytokines involved in inflammation and viral response (TNF-α, IFNα, IFNγ, and IL-10) [6]: downregulation | nucleocapsid protein abundance ([7]; infected Calu3, proteomics): not decreased | viral structural proteins (membrane and Spike) and accessory proteins (ORF7a, ORF8, and ORF9b) ([7]; infected Calu3, proteomics): significantly downregulated | 8 host proteins upregulated by SARS-CoV-2 (GSPT2, LGALS1, ENO2, H3C15, LXN, SAMD4B, SPTA1 and WDR75) ([7]; infected Calu3, proteomics, GSPT2, SAMD4B, WDR75 validated by Western blot): normalized | 21 cellular proteins downregulated by SARS-CoV-2 infection ([7]; several of these proteins, data not shown): restored to normal | phosphorylation of five serine residues (S2, S176, S180, S201, and S202) of nucleocapsid protein ([8]; compared with untreated and vehicle-treated infected cells): significant decrease | phosphorylation of viral membrane protein (M) at S212, S213 and S214 ([8]; infected cells, phosphoproteomics): significantly reduced | inhibition of Omicron virus production (Omicron B.1.1.529 virus): 80%-90% | Dclk1 and S100A9 in lung (confocal microscopy) (SARS-CoV-2 [9]): low expression | expression of Spike and nucleocapsid proteins in lung (Western blot) (SARS-CoV-2 [9]): reduced or absent | staining for Spike in lung (confocal microscopy) (SARS-CoV-2 [9]): rare or weak | lung histopathological features (H&E) (SARS-CoV-2 [9]; lungs collected on day 5): significantly improved | Kd (kinase domain of DCLK1; binds the kinase domain of DCLK1): 109 nM | adverse effects / body weight at MTD ([10]; 100 mg/kg): no adverse effects or loss of body weight | half-life [10]: 2.09 h | maximum tolerated dose (MTD) [10]: 100 mg/kg

COc1cc(N2CCN(C)CC2)ccc1Nc1ncc2c(n1)N(C)c1ccc(C)cc1C(=O)N2CC(F)(F)F [DCLK1-NEG]
effect on Spike (SARS-CoV-2 [1]): did not reduce Spike | binding affinity (kinase domain of DCLK1; structural analog used as negative control): low binding affinity

COc1cccc2c1c(O)c(C(=O)N(C)c1ccc(C(F)(F)F)cc1)c(=O)n2C [tasquinimod]
active forms of caspase 1 and IL-1β [4]: downregulated

B1: lenzilumab: a GM-CSF inhibitor (antibody, chains of the INN, looked up, V domains shown)
VH: QVQLVQSGAEVKKPGASVKVSCKASGYSFTNYYIHWVRQAPGQRLEWMGWINAGNGNTKYSQKFQGRVTITRDTSASTAYMELSSLRSEDTAVYYCVRRQRFPYYFDYWGQGTLVTVSS
VL: EIVLTQSPATLSVSPGERATLSCRASQSVGTNVAWYQQKPGQAPRVLIYSTSSRATGITDRFSGSGSGTDFTLTISRLEPEDFAVYYCQQFNKSPLTFGGGTKVEIK
survival of COVID-19 patients (GM-CSF): significantly improved
